From patent US11071731B2, “Allosteric modulators of the mu opioid receptor” (Chiromics, LLC, priority 2017, dated 2021)

How the values were obtained:
mu opioid receptor (MOR) [1] = target: T1, mu opioid receptor (MOR) (Homo sapiens, UniProt P35372); test: Hit Hunter cAMP signaling assay (adenylyl cyclase inhibition), PAM mode with EC20 endomorphin-1; format: cell-based
mu opioid receptor (MOR) [2] = target: T1, mu opioid receptor (MOR); test: PathHunter β-arrestin recruitment assay, PAM mode with EC20 endomorphin-1; format: cell-based
In short: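 Enzyme fragment complementation read-out: β-gal ED fragment fused to receptor, EA fused to β-arrestin, recruitment restoring β-gal activity detected by chemiluminescence. EC50 and percent maximal response derived for each compound.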

[3] = adenylyl cyclase inhibition, read-out: cAMP EC50
[4] = maximal response for adenylyl cyclase inhibition
[5] = maximal response for β-arrestin recruitment
[6] = β-arrestin recruitment, read-out: β-arr. EC50
[7] = cAMP EC50, adenylyl cyclase inhibition
[8] = maximal response, adenylyl cyclase inhibition
[9] = maximal response, β-arrestin recruitment

T1 sequence (P35372 whole entry): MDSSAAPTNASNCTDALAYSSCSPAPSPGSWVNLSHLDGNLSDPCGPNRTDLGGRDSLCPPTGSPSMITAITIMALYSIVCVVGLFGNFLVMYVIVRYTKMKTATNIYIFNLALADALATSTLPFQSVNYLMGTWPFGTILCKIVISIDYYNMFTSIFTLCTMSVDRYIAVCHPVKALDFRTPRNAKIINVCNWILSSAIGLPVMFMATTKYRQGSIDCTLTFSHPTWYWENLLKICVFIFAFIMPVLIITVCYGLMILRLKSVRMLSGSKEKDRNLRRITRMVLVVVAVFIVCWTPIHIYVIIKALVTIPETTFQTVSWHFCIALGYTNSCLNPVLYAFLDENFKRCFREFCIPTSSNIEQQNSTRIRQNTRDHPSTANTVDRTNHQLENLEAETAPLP

SMILES	EC50 (mu opioid receptor (MOR) [1]; [3])	cAMP Max. Resp. (mu opioid receptor (MOR) [1]; [4])	β-arr Max. Resp. (mu opioid receptor (MOR) [2]; [5])	EC50 (mu opioid receptor (MOR) [2]; [6])	EC50 (mu opioid receptor (MOR) [1]; [7])	cAMP Max. Resp. (mu opioid receptor (MOR) [1]; [8])	β-arr Max. Resp. (mu opioid receptor (MOR) [2]; [9])	cAMP Max Resp. (mu opioid receptor (MOR) [1]; adenylyl cyclase inhibition, activity switching by MOR PAMs)	EC50 (mu opioid receptor (MOR) [1]; adenylyl cyclase inhibition, activity switching by MOR PAMs, read-out: cAMP EC50)	β-arrestin Max Response (mu opioid receptor (MOR) [2]; β-arrestin recruitment, activity switching by MOR PAMs)	EC50 (mu opioid receptor (MOR) [2]; β-arrestin recruitment, activity switching by MOR PAMs, read-out: β-arrestin EC50)
Fc1cc(C2COCCN2Cc2cc(Cl)ccc2F)cc(C(F)(F)F)c1 (racemic) [Compound 195]	> 2100 nM	D (D represents a maximal response of < 40%)	F (F represents a maximal response of > 60%)	700 to 2100 nM							
Fc1cc(C2CCC(F)CN2c2nc(Cl)ncc2F)cc(C(F)(F)F)c1 (stereo not drawn) [compound 313]	700 to 2100 nM	E (E represents a maximal response of 40-60%)	F (F represents a maximal response of > 60%)	> 2100 nM							
O=S(=O)(c1ccc(Cl)cc1)N1CCOCC1c1ccc(F)c(Br)c1 (racemic) [Compound 185]	> 2100 nM	D (D represents a maximal response of < 40%)	F (F represents a maximal response of > 60%)	700 to 2100 nM							
COc1ccc(C2C(C)CCCN2c2nc(Cl)ncc2F)cc1Br (stereo not drawn) [compound 249]	> 2100 nM	E (E represents a maximal response of 40-60%)	F (F represents a maximal response of > 60%)	> 2100 nM							
Fc1cnc(Cl)nc1N1CCCCC1c1nc2ccccc2s1 (stereo not drawn) [compound 340]		D (D represents a maximal response of < 40%)	D (D represents a maximal response of < 40%)	< 700 nM	< 700 nM						
Fc1cnc(Cl)nc1N1CCCCC1c1c(C(F)(F)F)ccc(F)c1Br (stereo not drawn) [compound 354]		D (D represents a maximal response of < 40%)	D (D represents a maximal response of < 40%)	< 700 nM	< 700 nM						
COc1ccc(C2CCCCCN2S(=O)(=O)c2ccc(Cl)cc2)cc1Br (racemic) [compound 84]	> 2100 nM	D (D represents a maximal response of < 40%)	E (E represents a maximal response of 40-60%)	> 2100 nM							
OC1CCN(c2nc(Cl)ncc2F)C(c2ccc(F)c(Br)c2)C1 (stereo not drawn) [compound 241]		E (E represents a maximal response of 40-60%)	F (F represents a maximal response of > 60%)	> 2100 nM	> 2100 nM						
O=S(=O)(c1ccc(Cl)cc1)N1CCCCC1c1ccc(Cl)cc1 (racemic) [compound 76]	> 2100 nM	D (D represents a maximal response of < 40%)	F (F represents a maximal response of > 60%)	> 2100 nM							
Oc1ncnc(N2CCCCC2c2cccc(C(F)(F)F)c2)c1F (stereo not drawn) [compound 356]		D (D represents a maximal response of < 40%)	D (D represents a maximal response of < 40%)	< 700 nM	< 700 nM						
Fc1cnc(Cl)nc1N1CCCCC1c1ccc(Cl)c(C(F)(F)F)c1 (single isomer, unassigned) [compound 348]		D (D represents a maximal response of < 40%)	D (D represents a maximal response of < 40%)	< 700 nM							
Fc1cnc(Cl)cc1N1CCCCC1c1cccc(C(F)(F)F)c1 (stereo not drawn) [compound 261]		D (D represents a maximal response of < 40%)	F (F represents a maximal response of > 60%)	700 to 2100 nM	> 2100 nM						
COc1ccc(C2CC(C)CN2c2nc(Cl)ncc2F)cc1Br (stereo not drawn) [compound 237]	> 2100 nM	D (D represents a maximal response of < 40%)	E (E represents a maximal response of 40-60%)	> 2100 nM							
Fc1cc(C2C3CCC(C3)N2c2nc(Cl)ncc2F)cc(C(F)(F)F)c1 (stereo not drawn) [compound 139]		E (E represents a maximal response of 40-60%)	F (F represents a maximal response of > 60%)	> 2100 nM	> 2100 nM						
COc1ncc(F)c(N2CCCCC2c2ccc(F)c(Cl)c2)n1 (stereo not drawn) [compound 461]				> 2100 nM	> 2100 nM	E (E represents a maximal response of 40-60%)	F (F represents a maximal response of > 60%)				
Fc1cccc(CN2CCCCC2c2cccc(C(F)(F)F)n2)c1 (stereo not drawn) [compound 152]		E (E represents a maximal response of 40-60%)	F (F represents a maximal response of > 60%)	> 2100 nM	700 to 2100 nM						
Fc1ccc(C2CCCCN2Cc2cc(Cl)ccc2F)cc1 (stereo not drawn) [compound 163]		E (E represents a maximal response of 40-60%)	F (F represents a maximal response of > 60%)	700 to 2100 nM	< 700 nM						
O=S(=O)(c1ccc(Cl)cc1)N1CCCCC1c1cc(C(F)(F)F)ccn1 (racemic) [compound 79]	> 2100 nM	D (D represents a maximal response of < 40%)	F (F represents a maximal response of > 60%)	> 2100 nM				D (D represents a maximal response of < 40%)	> 2100 nM	F (F represents a maximal response of >60%)	> 2100 nM
Fc1cc(C2CCCCN2c2nc(Cl)ncc2F)cc(C(F)(F)F)c1 (stereo not drawn) [compound 122]		F (F represents a maximal response of > 60%)	F (F represents a maximal response of > 60%)	< 700 nM	< 700 nM						
C#Cc1cccc(N2CCCCC2c2cccc(C(F)(F)F)n2)c1 (stereo not drawn) [compound 451]				> 2100 nM	> 2100 nM	D (D represents a maximal response of < 40%)	F (F represents a maximal response of > 60%)				
Fc1cc(C2CCCCN2Cc2cccc(Br)c2)cc(C(F)(F)F)c1 (stereo not drawn) [compound 148]		E (E represents a maximal response of 40-60%)	F (F represents a maximal response of > 60%)	700 to 2100 nM	> 2100 nM						
OC1CN(c2ncc(F)c(N3CCCCC3c3cccc(C(F)(F)F)c3)n2)C1 (stereo not drawn) [compound 256]		D (D represents a maximal response of < 40%)	D (D represents a maximal response of < 40%)	> 2100 nM	> 2100 nM						
Fc1cnc(Cl)nc1N1CCCCC1c1ccnc(C(F)(F)F)c1 (stereo not drawn) [compound 410]		D (D represents a maximal response of < 40%)	D (D represents a maximal response of < 40%)	< 700 nM	< 700 nM						
O=S(=O)(c1ccc(Cl)cc1)N1CCCCC1c1ccc(F)c(F)c1 (racemic) [compound 75]	< 700 nM	E (E represents a maximal response of 40-60%)	F (F represents a maximal response of > 60%)	700 to 2100 nM							
[2H]C1(c2cccc(C(F)(F)F)c2)C(F)CCCN1Cc1cccc(Br)c1 (stereo not drawn) [compound 206]		E (E represents a maximal response of 40-60%)	F (F represents a maximal response of > 60%)	700 to 2100 nM	700 to 2100 nM						
[2H]C1(c2ccc(F)c(Br)c2)C(F)CCCN1S(=O)(=O)Cc1ccc(Cl)cc1 (stereo not drawn) [Compound 33]		D (D represents a maximal response of < 40%)	F (F represents a maximal response of > 60%)								
Fc1ccnc(C2CCCCN2c2nc(Cl)ncc2F)c1 (stereo not drawn) [compound 412]		D (D represents a maximal response of < 40%)	D (D represents a maximal response of < 40%)	< 700 nM	< 700 nM						
Fc1cccc(C2CCCCN2c2ccnc(Cl)n2)n1 (stereo not drawn) [compound 259]		D (D represents a maximal response of < 40%)	D (D represents a maximal response of < 40%)	> 2100 nM	> 2100 nM						
O=S(=O)(c1ccc(Cl)cc1)N1CCCCC1c1ccc(Cl)c(C(F)(F)F)c1 (single isomer, unassigned) [compound 69]	700 to 2100 nM	D (D represents a maximal response of < 40%)	F (F represents a maximal response of > 60%)	> 2100 nM							
